Test results taken from patent US7261875B2, “Dendritic poly (amino acid) carriers and methods of use” (Board of Regents, The University of Texas System, priority 2001, dated 2007).

Legend:
SK-Br3 cells = assay: Fluorescence microscopy, non-specific interaction of near-infrared dyes with FR-negative cells; format: cell-based, human; conditions: SK-Br3 cells (do not express FR), 30 minute incubation, 37° C.
Protocol: The folic acid receptors (FR)-mediated binding of near-infrared gluorescent conjugate PAMAM-PG16-ICG-folate was studied using a human nasopharyngeal epidermal carcinoma cell line KB and a human breast carcinoma cell line SK-BR3. KB cells over-express the FR, whereas SK-Br3 cells have no detectable […]. Cells were incubated with PAMAM-PG16-ICG-folate, indocyanine green (ICG, Sigma-Aldrich Corp. St. Louis, Mo.) or ICG-NH2 at 37° C. on cover clips in a 24-well place (Beckton Dickinson Labware, Franklin Kakes, N.J.). Each well contained 0.5 ml Dulbecco's Modified Eagle's medium/nutrient Mixture F-12 Ham (DMEM/F12) containing 10% FBS (Gibco, Grand Island, N.Y.). The final concentration of the conjugate was calculated based on the equivalent does of folic acid and ICG-NH2. For the blocking study, free folic acid was added to the culture medium 30 minutes prior to the addition of the test agents. […] Data were recorded by a Leica DMR microscope (Leica Microsystems Inc. Brannockburn, Ill.) equipped with a 75 W Xenon lamp, Indo-Cyanine Green and FITC filters (775/845 and 480/535, excitation/emission, respectively) (Chroma Technology Corp., Brattleboro, Vt.), Hamamatsue B/W Chilled CCD camera (Hamamatsu Photonics, K.K. Hamamamatsu City, Japan) and Image-Pro Plus 4.5.1 software (Media Cybernetics, L. P., Silver Spring, Md.). […]

[1] = tested on: human vulvar squamous A431 cell line; assay: MTT assay, growth inhibition of A431 cells; format: cell-based; conditions: A-431, 72 hrs continuous incubation, equivalent TXL concentrations, read-out: estimated IC50, growth inhibition
Protocol: The MTT assay was used to quantitatively compare the effects of PAMAM-PG8-TXL, linear PG-TXL, and paclitaxel on cell growth in a human vulvar squamous A431 cell line. Cells were plated in a 96-well plate at a density of 2000 cells/well and then incubated with various concentrations of paclitaxel, PAMAM-PG8-TXL, or linear PG-TXL.

[2] = tested on: syngeneic murine ovarian OCA-1 tumor; assay: Tumor growth delay after a single intravenous dose; conditions: dose of 60 mg/kg, single i.v. dose, tumors 8 mm
[3] = Body weight loss after treatment; conditions: 60 mg/kg, single i.v. dose

IC50 [1] | Compound | fluorescence / non-specific interaction with cells (SK-Br3 cells) | growth delay [2] | body weight loss [3]
– | CC1(C)C(/C=C/C=C/C=C/C=C2\N(CCCCS(=O)(=O)O)c3ccc4ccccc4c3C2(C)C)=[N+](CCCCS(=O)(=O)[O-])c2ccc3ccccc3c21 [ICG, indocyanine green] | did not have detectable non-specific interaction | – | –
< 1 nM | CC(=O)O[C@H]1C(=O)[C@@]2(C)[C@H]([C@H](OC(=O)c3ccccc3)[C@]3(O)C[C@H](OC(=O)[C@H](O)[C@@H](NC(=O)c4ccccc4)c4ccccc4)C(C)=C1C3(C)C)[C@]1(OC(C)=O)CO[C@@H]1C[C@@H]2O [paclitaxel] | – | 14 days | 10%
